# Results from BindingDB's records for doi:10.1021/jm0301787 (Roche Palo Alto, 2003).
# pIC50: −log10 of the molar value.
# Target: Mitogen-activated protein kinase 14 (Homo sapiens, UniProt Q16539)
# Assay: In Vitro Kinase Assay
# Conditions: pH 7.4; 30 °C
# Method: Inhibition of human recombinant active p38alpha MAP kinase was tested by measuring the incorporation of 33P from gamma-[33P] ATP into myelin basic protein (MBP). The assay was performed in a 96-well microtiter plate. The incorporated radioactivity was measured in a Packard Topcount microplate scintillation counter. The 50% inhibitory value was calculated by fitting the data to the equation: fractional activity = 1/[I]/IC50 + 1.
# Mitogen-activated protein kinase 14, sequence (Q16539 whole entry): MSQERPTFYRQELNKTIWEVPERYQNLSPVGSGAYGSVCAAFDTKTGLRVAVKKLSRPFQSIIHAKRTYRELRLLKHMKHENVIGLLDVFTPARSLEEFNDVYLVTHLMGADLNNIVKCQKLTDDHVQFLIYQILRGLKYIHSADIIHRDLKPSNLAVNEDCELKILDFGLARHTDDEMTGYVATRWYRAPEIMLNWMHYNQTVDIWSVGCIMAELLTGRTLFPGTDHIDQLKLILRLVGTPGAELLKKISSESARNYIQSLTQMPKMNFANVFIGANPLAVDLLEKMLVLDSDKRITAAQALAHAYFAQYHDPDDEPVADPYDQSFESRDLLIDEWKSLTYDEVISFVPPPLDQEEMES
structure (smiles),measurement,value
"CC(CO)Nc1cc(-c2[nH]c3cccnc3c2-c2ccc(F)cc2)ccn1 (stereo unspecified) [2-({4-[3-(4-fluorophenyl)-1H-pyrrolo[3,2-b]pyridin-2-yl]pyridin-2-yl}amino)propan-1-ol]",pIC50,8.52
